Laboratory results: patent publication US9610319B2, “Method of treating cancer” (Research Foundation of the City University of New York, priority 2014, dated 2017)
Bridge positions count the residues as written; N and C are the ends. Ends that are not written are not given here.

Columns and labels:
[1] = system: BNL.1MEA.7.R.1 cells; test: Mouse tumor study: BNL.1MEA.7.R.1 cells injected into right leg, intraperitoneal Tv1; type: in vivo, Balb/c female mice
Protocol: Balb/c female mice (20-35 g) were used for mouse studies. Animals were maintained on standard animal diet, in a controlled room (22±1° C. @ 35-50% RH) for a week prior to experiments. Animals were randomly divided into three groups: negative control (only PBS), high-dose and low-dose ZCD groups. Each group had five mice under sterile condition. On the day nine, the BNL.1MEA.7.R.1 cells (5 million) were injected into the right leg of each animal and allowed the tumors to grow. After two weeks the animals were checked for tumor growth and the sizes of tumors were recorded using calipers. The treatment was started after finding tumors in all groups.
The concentration of the Tv1 formulations was prepared at 0.08 mg/kg body weight (low dose) and 0.80 mg/kg body weight (high dose) for the intraperitoneal injections. Control group of animals received PBS. The drug administrations were continued for seven days and then further after a five day interval treatment was continued for another eight days and tumor sizes were measured every day.
In the high-dose group, the tumor volumes were 286.08±39.9 mm^3 at the beginning of the treatment and were 434.28±286 mm^3 after the last day which is an increase of only 52%.

[2] = system: Nereis virens (polychaete worms); test: Bioactivity assay on polychaete worms; type: in vivo
Protocol: To determine if synthetic Tv1 is biologically active, the peptide was injected into polychaete worms, which are the natural prey of terebrid snails. […] Inhibition of nicotinic receptors at the neuromuscular junction can result in paralysis.
Nereis virens (polychaete worms) (less than 3.5 g) were maintained at 4° C. in salt water prior to injection. Worms were laid on a Styrofoam block and injected with an insulin syringe. A modified needle cap was used to maintain a consistent 1.5 mm depth of needle puncture. Worms were injected between the 5th and 7th segments on the ventral anterior end with the aim of targeting the ventral nerve cord. Control worms were injected with 12 μl of 0.9% normal saline solution (NSS). Lyopholized samples of Tv1 toxin were resuspended in NSS and diluted to a concentration of 20 μM which was confirmed using a ThermoScientific Nanodrop 2000c spectrophotometer. At least three worms were used for each trial—one saline control and two injected with Tv1 toxin for a total of three trials. After injection, the worms were transferred to side-by-side containers filled with room temperature salt water. The worm movements were then recorded by video in order to evaluate the effects of the toxin over a period of at least 3.5 hours. Varying temperature elicits different phenotypic responses from N. virens: water at 4° C. has an anesthetizing effect, while room temperature prompts a vigorous response. Taking the worms from 4° C. water and immersing them in room temperature water (25° C.) immediately after injection stimulates an active response from the worms, making it easier to recognize paralytic (or partially paralytic) effects induced by a novel toxin in the first minutes after injection. Worms were observed every other day for two weeks after injection. […] Each video was analyzed and annotated […] by each observer. Observations for each worm began at the time of injection. The numerical results of the two independent viewings were averaged together if results were similar, if two viewers disagreed, a third observer was employed to review the disputed section of video. Results of relative activity vs. time were plotted to quantify the phenotypic effects of the toxin and saline injection on N. virens.

[3] = system: cell lines IMEA7 and BNL.CL2; test: In vitro cell viability, immunoblotting and wound healing assays on liver cancer cells; type: cell-based
Protocol: A novel teretoxin, Tv1 (TR(I/L)[…] (SEQ ID NO: 1)) from a terebrid snail, terebrid variegata was structurally identified and found to be biologically active. […] Tv1 was analyzed in cell viability, immunoblotting, and wound healing assays to characterize its function on liver cancer cells. […] Structural characterization of Terebra variegata peptide toxin Tv1 was accomplished using a total venom sample of 4 ng, an amount that would previously make characterization of venom components almost impossible.

Row | Substance | effect on growth of tumor ([1]; both low and high doses) | tumor volume after the last day ([1]; high dose 0.80 mg/kg body weight, intraperitoneal, after the last day) | tumor volume at the beginning of the treatment ([1]; high dose 0.80 mg/kg body weight, intraperitoneal, beginning of treatment) | increase of tumor volume ([1]; high dose 0.80 mg/kg, beginning to last day (negative control 418%)) | average tumor volume at the beginning of the treatment ([1]; low dose 0.08 mg/kg body weight, intraperitoneal, day one) | average tumor volume at the end of treatment ([1]; low dose 0.08 mg/kg body weight, intraperitoneal, end of treatment) | increase of average tumor volume ([1]; low dose 0.08 mg/kg, day one to end of treatment (negative control 418%)) | selectivity tumor cell versus normal cells in vivo ([1]; mice models expressing IMEA7 tumor cells subcutaneously) | body weights throughout the treatment period ([1]; monitored throughout treatment) | % Time spent, activity at 0 ([2]; 20 μM injected, activity at 0) | % Time spent, activity between 0 and 1 ([2]; 20 μM injected, activity between 0 and 1) | % Time spent, activity between 1 and 2 ([2]; 20 μM injected, activity between 1 and 2) | % Time spent, activity between 2 and 3 ([2]; 20 μM injected, activity between 2 and 3) | selectivity tumor cell versus normal cells in vitro ([3]; cell lines IMEA7 and BNL.CL2) | death of normal versus cancer cells compared to sorafenib and doxorubicin ([3]; cell viability, immunoblotting, wound healing assays) | phenotypic effect of injection into worms ([2]; injections of 20 μM)
1 | TR(I/L)CCGCYWNGSKDVCSQSCC [Tv1, novel teretoxin from terebrid snail Terebra variegata, chemically synthesized; Ile or Leu at position 3] | effective in significantly decreasing the growth of tumor | 434.28±286 mm^3 | 286.08±39.9 mm^3 | 52% | 180±36.74 mm^3 | 485±175.07 mm^3 | 170% | selectively targets tumor cell versus normal cells | not significantly changed | 0.995% | 74.47% | 19.98% | 4.55% | selectively targets tumor cell versus normal cells | prevented the death of normal versus cancer cells at high instance | –
2 | TRICCGCYWNGSKDVCSQSCC (disulfide 7-16, 4-20, 5-21; listed as Terebra variegata) [Tv1 (Ile), Tv1 peptide with Ile at the third position] | – | – | – | – | – | – | – | – | – | – | – | – | – | – | – | partial paralysis
